Drawing on patent publication US20240000783A1, “COMBINATION THERAPY” (Pfizer Inc., priority 2020, published 2024), this text covers inhibition for 3 compounds.

For this assay, the system named is LNCaP prostate cancer cells (AR+ spheroids). In words: Multicellular tumor spheroid growth assay. The following applies: Homo sapiens, single agent, read-out: SGI % (percent spheroid growth inhibition); for inhibition at 0.1 µM: 100 nM; for inhibition at 1 µM: 1000 nM. Type of assay: cell-based. On the procedure: Example 1—Multicellular Tumor Spheroid Growth Assay in Human AR+ Prostate Cancer Cells (LNCaP) LNCaP prostate cancer cells were obtained from the ATCC and maintained in RPMI 1640 medium supplemented with 10% fetal bovine serum and penicillin-streptomycin as per ATCC guidelines. Cells were maintained in humidified incubator at 37° C. with 5% CO2. Spheroid assays were performed in 96 well ultralow attachment plates (ULA-96U) from Nexcelom & Thermo Fisher Scientific. […] To aid spheroid formation, dispensed cells were centrifuged at 220×g for 6 minutes in the ultralow attachment plates and allowed to form compact spheroids for 4 days prior to the initiation of treatment. After spheroids were formed, 150 μL of medium was aspirated from each well without disturbing the spheroid, and fresh RPMI medium of the same volume was added containing single agent compounds (palbociclib, COMPOUND A, or enzalutamide), or selected combinations thereof. Final concentrations of each compound in the wells were: 30 or 100 nM for palbociclib; 100, 300 or 1000 nM for COMPOUND A; and 1000 nM for enzalutamide. DMSO (0.01%) was used as the vehicle control. DMSO and all compounds were diluted in cell medium. Medium and compounds were replenished twice per week, with 3 and 4-day intervals. Replenishment was executed by aspirating 150 μL of medium per well without disturbing the spheroid and then adding the same volume of premixed medium/compound solution to spheroids. In some cases, an extended phase of treatment was followed by a ‘recovery’ phase where medium was replenished without addition of compounds. Spheroid diameter was quantified immediately following each medium change twice a week (on every 3rd or 4th day) throughout the duration of the assay. Growth of these MCTS was monitored over time to assess: (i) amplitude of response (SGI) and (ii) duration of response to single agents and combination treatments while on treatment. Average diameters of tumor spheroids were plotted in GraphPad Prism 8 and the area-under-curve (AUC) was calculated. AUC baseline was determined by the average tumor spheroid diameter at Day 0 in the vehicle (DMSO) controls. Spheroid growth inhibition, SGI, for all treatment arms was derived at the timepoint when the vehicle (DMSO) treated spheroids reach their maximal diameter (usually close to 1 mm but this can differ among cell lines); this corresponds to the last time point taken for the vehicle (DMSO) treated spheroids. SEM calculated based on n=10 to 12 wells per test group. Percent spheroid growth inhibition, or SGI %, was calculated as follows: SGI %=(1-AUC treatment/AUC DMSO)×100%.

As for `CC(C)n1c(C(C)(C)O)nc2c(F)cc(-c3nc(N[C@@H]4CCOC[C@H]4O)ncc3Cl)cc21` [COMPOUND A, 1,5-anhydro-3-({5-chloro-4-[4-fluoro-2-(2-hydroxypropan-2-yl)-1-(propan-2-yl)-1H-benzimidazol-6-yl]pyrimidin-2-yl}amino)-2,3-dideoxy-D-threo-pentitol], the inhibition (commonly the drop in the measured response relative to a control, in per cent) at 0.1 µM came out at 27% and the inhibition at 1 µM came to 53%. For the same compound, the inhibition at 0.3 µM (300 nM) came to 38%.

Regarding `CNC(=O)c1ccc(N2C(=S)N(c3ccc(C#N)c(C(F)(F)F)c3)C(=O)C2(C)C)cc1F` [enzalutamide, 4-[3-[4-cyano-3-(trifluoromethyl)phenyl]-5,5-dimethyl-4-oxo-2-thioxo-1-imidazolidinyl]-2-fluoro-N-methyl-benzamide], the inhibition at 1 µM came out at 46%.

As to `CC(=O)c1c(C)c2cnc(Nc3ccc(N4CCNCC4)cn3)nc2n(C2CCCC2)c1=O` [palbociclib], the inhibition at 0.1 µM was determined as 24%. The inhibition at 0.03 µM (30 nM) is 5%.
